{
  "source": "ChEMBL document CHEMBL1157358",
  "about": "“Comparative study of the effects of pyridoxine, rifampin, and renal function on hematological adverse events induced by linezolid” (Antimicrob Agents Chemother, 2007)",
  "key": {"[1]": {"assay": "AUC in human at 600 mg administered every 12 hrs measured after 24 hrs", "type": "ADME, organism-based", "parameters": "time < 24 hr, dose 600 mg", "details": "plasma"}, "Staphylococcus": {"system": "Staphylococcus", "assay": "Antibacterial activity against coagulase-negative Staphylococcus", "type": "functional"}, "Staphylococcus aureus": {"system": "Staphylococcus aureus", "assay": "Antibacterial activity against Staphylococcus aureus", "type": "functional"}, "[2]": {"assay": "Drug level at steady state in human serum at 600 mg administered every 12 hrs", "type": "ADME, cell-free", "details": "read-out: Drug uptake"}, "[3]": {"system": "mitochondrial protein synthesis", "assay": "Toxicity in rat heart mitochondria assessed as inhibition of mitochondrial protein synthesis", "details": "pooled result: one value given for 4 cell lines, strains, targets or settings"}, "Enterococcus": {"system": "Enterococcus", "assay": "Antibacterial activity against Enterococcus", "type": "functional"}, "Streptococcus": {"system": "Streptococcus", "assay": "Antibacterial activity against Streptococcus", "type": "functional"}, "Homo sapiens [4]": {"organism": "Homo sapiens", "assay": "Inhibition of linezolid-induced hematological events in bone infection patient assessed as rate of thrombocytopenia at 125 mg relative to control", "type": "functional", "parameters": "scale not given: the % may be the effect or the level left"}, "Homo sapiens [5]": {"organism": "Homo sapiens", "assay": "Inhibition of linezolid-induced hematological events in bone infection patient assessed as rate of anemia at 125 mg relative to control", "type": "functional", "parameters": "scale not given: the % may be the effect or the level left"}, "Homo sapiens [6]": {"system": "Homo sapiens", "assay": "Inhibition of linezolid-induced hematological events in orthopedic implant infection patient assessed as effect on thrombocytopenia at 200 mg, po once daily", "type": "functional, organism-based"}, "Homo sapiens [7]": {"system": "Homo sapiens", "assay": "Inhibition of linezolid-induced hematological events in orthopedic implant infection patient assessed as effect on anemia at 200 mg, po once daily", "type": "functional, organism-based"}, "Homo sapiens [8]": {"organism": "Homo sapiens", "assay": "Inhibition of linezolid-induced hematological events in orthopedic implant infection patient assessed as reduction of anemia incidence relative to control", "type": "functional, organism-based"}, "Homo sapiens [9]": {"organism": "Homo sapiens", "assay": "Inhibition of linezolid-induced hematological events in orthopedic implant infection patient assessed as thrombocytopenia incidence relative to control", "type": "functional", "parameters": "scale not given: the % may be the effect or the level left"}},
  "note": "Calls of active or inactive are those of the source. The rule behind the calls is not given here.",
  "data": [
    {"smiles": "CC(=O)NC[C@H]1CN(c2ccc(N3CCOCC3)c(F)c2)C(=O)O1", "note": "[LINEZOLID]", "values": [
      {"measurement": "AUC at 24 h", "setting": "[1]", "value": 260, "unit": "µg·h/mL"},
      {"measurement": "MIC", "setting": "Staphylococcus", "value": 0.5, "unit": "µg/mL"},
      {"measurement": "MIC", "setting": "Staphylococcus aureus", "value": 0.5, "unit": "µg/mL"},
      {"measurement": "concentration at 12 h", "setting": "[2]", "value": 6000, "unit": "ng/mL"},
      {"measurement": "IC50", "setting": "[3]", "value": 3.37, "unit": "µg/mL"},
      {"measurement": "MIC", "setting": "Enterococcus", "value": 0.5, "unit": "µg/mL"},
      {"measurement": "MIC", "setting": "Streptococcus", "value": 0.5, "unit": "µg/mL"}
    ]},
    {"smiles": "Cc1ncc(CO)c(CO)c1O", "note": "[PYRIDOXINE]", "values": [
      {"measurement": "Activity", "setting": "Homo sapiens [4]", "value": 45.8, "unit": "%"},
      {"measurement": "Activity", "setting": "Homo sapiens [5]", "value": 25, "unit": "%"},
      {"measurement": "Activity", "setting": "Homo sapiens [6]", "value": "inactive"},
      {"measurement": "Activity", "setting": "Homo sapiens [7]", "value": "inactive"}
    ]},
    {"smiles": "CO[C@H]1/C=C/O[C@@]2(C)Oc3c(C)c(O)c4c(O)c(c(/C=N/N5CCN(C)CC5)c(O)c4c3C2=O)NC(=O)/C(C)=C\\C=C\\[C@H](C)[C@H](O)[C@@H](C)[C@@H](O)[C@@H](C)[C@H](OC(C)=O)[C@@H]1C", "note": "[RIFAMPIN]", "values": [
      {"measurement": "Activity", "setting": "Homo sapiens [8]", "value": "Active"},
      {"measurement": "Activity", "setting": "Homo sapiens [9]", "value": 5.8, "unit": "%"}
    ]}
  ]
}
